Data from PMC5278707, “Structure-Activity Relationships of a Series of Echinocandins and the Discovery of CD101, a Highly Stable and Soluble Echinocandin with Distinctive Pharmacokinetic Properties” (Antimicrobial Agents and Chemotherapy, 2017).
Like-named read-outs stand apart in the source and are kept apart here. *1 amine or outer side, *2 acyl side, *3 side chain or, on linkers, in order; H or OH if unused. Where a SMILES comes first, the peptide text is derived from it. Bridges are numbered along the chain shown (N, C = ends). [ ]: non-standard residue; d: D form. The star is where a group is joined. Orn(4R-OH,5R-OCH2CH2NMe3+) = C[N+](C)(C)CCO[C@@H](N[*:3])[C@H](O)C[C@H](N[*:1])C(=O)[*:2]; pTerphenylCO(4''-OnC5H11) = CCCCCOc1ccc(-c2ccc(-c3ccc(C(=O)*)cc3)cc2)cc1; hTyr(3S-OH,4S-OH) = N[C@H](C(=O)O)[C@H](O)[C@@H](O)c1ccc(O)cc1; Pro(3S-OH,4S-Me) = C[C@H]1CN[C@H](C(=O)O)[C@H]1O; Hyp = O=C(O)[C@@H]1C[C@@H](O)CN1

Legend:
Candida albicans R303 = assay: mouse model of disseminated candidiasis, fungal burden in kidneys; assay type: in vivo; settings: kidneys at 24 h; for reductions in fungal burden vs infected control (statistical significance): neutropenic CD-1 mice, 0.5, 1.5 or 4.5 mg/kg 2 h after inoculation
Description: Candida albicans R303 was grown on Sabouraud dextrose agar (SDA) plates for 24 h at 35°C. Colonies were transferred to phosphate-buffered saline (PBS) and diluted to 3.8 × 10^5 CFU/ml. Female CD-1 mice (Charles River Laboratories, Portage, MI) were rendered neutropenic via injection with cyclophosphamide (150 mg/kg) 5 days and 2 days prior to inoculation. Each animal was infected by injecting 0.1 ml of inoculum into the tail vein. In the treatment groups, animals received 0.5, 1.5, or 4.5 mg/kg of test article 2 h after inoculation. Two groups of untreated, infected controls were used to evaluate fungal burden: at 2 h when test articles were administered in the treatment groups and at 24 h when the treatment groups were sacrificed. Kidneys were harvested at 2 h in one untreated control group and at 24 h in all other groups. The kidneys were homogenized in 2 ml of sterile phosphate-buffered saline, and 0.1-ml aliquots were spread on SDA plates and incubated at 35°C overnight. Fungal burden was determined based on the log10 C. albicans CFU counts from paired kidneys. Data were analyzed using a one-way analysis of variance (ANOVA) and the Dunnett multiple comparisons test comparing the test articles to the infected control group (GraphPad InStat version 3.1; GraphPad Software, San Diego, CA).

[1] = test system: Aspergillus clavatus ATCC 10058; assay: CLSI broth microdilution (M38-A2) MEC/MIC; assay type: cell-based; settings: read at 68 h, stunted hyphal growth
Description: All yeast and mold isolates were obtained from the American Type Culture Collection (ATCC). Isolates were plated on an agar medium to verify purity, and single colonies were picked. Aspergillus isolates were resubcultured on potato dextrose slants and incubated for 7 days at 35°C. Candida isolates were streaked on SDA plates and incubated for 24 h at 35°C. RPMI 1640 medium (HyClone Laboratories, Logan, UT) and the inoculum for each organism were prepared according to Clinical and Laboratory Standards Institute (CLSI) guidelines ([27][–][29]). Stock solutions for all test articles were prepared in 100% dimethyl sulfoxide (DMSO). Susceptibility testing was performed using CLSI broth microdilution methods for Candida (M27-A3) and Aspergillus (M38-A2). Amphotericin B was tested at a range of 0.06 to 64 μg/ml; all other antifungal agents were tested at 0.015 to 16 μg/ml. […] MIC values are reported as the lowest drug concentration to yield a 50% reduction in the growth of Candida species tested compared to the control well. Minimum effective concentration (MEC) values are reported as the lowest drug concentration to yield the stunted hyphal growth of Aspergillus species tested compared to that of the control well.

[2] = single-dose pharmacokinetics in beagle dogs; settings: male, dog, in vivo, iv
Description: Four male, nonnaive beagle dogs received a single i.v. infusion (1.4 mg/kg) of test article over 10 min via a catheter placed in the cephalic vein. Blood draws (1.0 ml) were taken at 0.083, 0.33, 0.75, 1.5, 4.5, 12, 24, and 48 h. An additional blood draw at 72 h was obtained for CD101. Blood draws were taken from the jugular vein and were collected into K3 EDTA tubes. Following blood collection, the samples were immediately inverted several times and were held on wet ice pending centrifugation. The samples were centrifuged within ∼30 min of collection under refrigeration (∼5°C for ∼10 min at ∼2,000 g) to obtain plasma. The plasma samples were frozen immediately on dry ice after separation and were stored at approximately −70°C until analysis. Levels of test article in the plasma samples were measured by quantitative liquid chromatography-tandem mass spectrometry (LC-MS/MS) analysis compared to a calibration curve and an internal standard. Pharmacokinetic parameters were calculated from the plasma concentration-time data using standard noncompartmental methods and utilizing WinNonlin analysis software.

Aspergillus spp. = assay: CLSI broth microdilution (M38-A2) MEC, whole panel; assay type: cell-based; settings: 48 h, summary of Table 3
Description: (§1) All yeast and mold isolates were obtained from the American Type Culture Collection (ATCC). Isolates were plated on an agar medium to verify purity, and single colonies were picked. Aspergillus isolates were resubcultured on potato dextrose slants and incubated for 7 days at 35°C. Candida isolates were streaked on SDA plates and incubated for 24 h at 35°C. RPMI 1640 medium (HyClone Laboratories, Logan, UT) and the inoculum for each organism were prepared according to Clinical and Laboratory Standards Institute (CLSI) guidelines ([27][–][29]). Stock solutions for all test articles were prepared in 100% dimethyl sulfoxide (DMSO). Susceptibility testing was performed using CLSI broth microdilution methods for Candida (M27-A3) and Aspergillus (M38-A2). Amphotericin B was tested at a range of 0.06 to 64 μg/ml; all other antifungal agents were tested at 0.015 to 16 μg/ml. Plates were incubated at 35°C and were read from the bottom using a plate viewer after 24 and 48 h for Candida and after 48 h for Aspergillus. MIC values are reported as the lowest drug concentration to yield a 50% reduction in the growth of Candida species tested compared to the control well. Minimum effective concentration (MEC) values are reported as the lowest drug concentration to yield the stunted hyphal growth of Aspergillus species tested compared to that of the control well.

[3] = humans, clinical trials ref 22; cited from earlier work
[4] = test system: Candida krusei ATCC 14243; assay: CLSI broth microdilution (M27-A3) MIC; assay type: cell-based; settings: Pichia kudriavzevii, ATCC14243, 50% reduction in growth
Description: as §1

[5] = test system: Candida parapsilosis ATCC 22019; assay: CLSI broth microdilution (M27-A3) MIC; assay type: cell-based; settings: Lodderomyces parapsilosis, ATCC22019, 50% reduction in growth
Description: as §1

[6] = test system: Candida tropicalis ATCC 90874; assay: CLSI broth microdilution (M27-A3) MIC; assay type: cell-based; settings: 50% reduction in growth
Description: as §1

[7] = test system: Candida lusitaniae ATCC 34134; assay: CLSI broth microdilution (M27-A3) MIC; assay type: cell-based; settings: Clavispora lusitaniae, ATCC34134, 50% reduction in growth, read-out: MIC
Description: as §1

[8] = test system: Candida albicans ATCC 90028; assay: CLSI broth microdilution (M27-A3) MIC; assay type: cell-based; settings: 50% reduction in growth
Description: as §1

[9] = test system: Candida guilliermondii ATCC 34134; assay: CLSI broth microdilution (M27-A3) MIC; assay type: cell-based; settings: Meyerozyma guilliermondii, ATCC34134, 50% reduction in growth
Description: as §1

[10] = test system: Candida glabrata ATCC 90030; assay: CLSI broth microdilution (M27-A3) MIC; assay type: cell-based; settings: Nakaseomyces glabratus, ATCC90030, 50% reduction in growth, read-out: MIC
Description: as §1

[11] = test system: Aspergillus ochraceus ATCC 96919; assay: CLSI broth microdilution (M38-A2) MEC/MIC; assay type: cell-based; settings: 48 h, stunted hyphal growth
Description: as §1

[12] = test system: Aspergillus candidus ATCC 13686; assay: CLSI broth microdilution (M38-A2) MEC/MIC; assay type: cell-based; settings: 48 h, stunted hyphal growth
Description: as §1

[13] = test system: Aspergillus niger ATCC 16888; assay: CLSI broth microdilution (M38-A2) MEC/MIC; assay type: cell-based; settings: 48 h, stunted hyphal growth
Description: as §1

[14] = test system: Aspergillus fumigatus ATCC MYA-3626; assay: CLSI broth microdilution (M38-A2) MEC/MIC; assay type: cell-based; settings: 48 h, stunted hyphal growth
Description: as §1

[15] = test system: Aspergillus flavus ATCC 22546; assay: CLSI broth microdilution (M38-A2) MEC/MIC; assay type: cell-based; settings: 48 h, stunted hyphal growth
Description: as §1

[16] = test system: Aspergillus fumigatus ATCC 204305; assay: CLSI broth microdilution (M38-A2) MEC/MIC; assay type: cell-based; settings: 48 h, stunted hyphal growth
Description: as §1

Row | SMILES | reductions in fungal burden vs infected control (statistical significance) (Candida albicans R303) | MEC [1] [µg/mL] | MEC values against all Aspergillus species tested (Aspergillus spp.) | MIC ([4]; 24 h) [µg/mL] | MIC ([4]; 48 h) [µg/mL] | MIC ([5]; 24 h) [µg/mL] | MIC ([5]; 48 h) [µg/mL] | MIC ([6]; ATCC90874, 24 h) [µg/mL] | MIC ([6]; ATCC90874, 48 h) [µg/mL] | MIC ([7]; 24 h) [µg/mL] | MIC ([7]; 48 h) [µg/mL] | MIC ([8]; ATCC90028, 24 h) [µg/mL] | MIC ([8]; ATCC90028, 48 h) [µg/mL] | MIC ([9]; 24 h) [µg/mL] | MIC ([9]; 48 h) [µg/mL] | MIC ([10]; 24 h) [µg/mL] | MIC ([10]; 48 h) [µg/mL] | MEC [11] [µg/mL] | MEC [12] [µg/mL] | MEC [13] [µg/mL] | further results
1 | CCCCCOc1ccc(-c2ccc(-c3ccc(C(=O)N[C@H]4C[C@@H](O)[C@@H](OCC[N+](C)(C)C)NC(=O)[C@@H]5[C@@H](O)[C@@H](C)CN5C(=O)[C@H]([C@@H](C)O)NC(=O)[C@H]([C@H](O)[C@@H](O)c5ccc(O)cc5)NC(=O)[C@@H]5C[C@@H](O)CN5C(=O)[C@H]([C@@H](C)O)NC4=O)cc3)cc2)cc1 [CD101] ({pTerphenylCO(4''-OnC5H11)}-[Orn(4R-OH,5R-OCH2CH2NMe3+)]T[Hyp][hTyr(3S-OH,4S-OH)]T[Pro(3S-OH,4S-Me)]; lactam 1-C) | statistically significant (P < 0.01) reductions in fungal burden at all doses | 0.03 | below 0.03 μg/ml | 0.03 | 0.03 | 0.5 | 1 | ≤ 0.015 | ≤ 0.015 | 0.25 | 0.25 | 0.03 | 0.03 | 0.5 | 2 | 0.03 | 0.03 | 0.03 | ≤0.015 | ≤0.015 | fungal burden relative to limit of detection (Candida albicans R303; neutropenic CD-1 mice, 0.5, 1.5 or 4.5 mg/kg): below the limit of detection for at least one of the doses; clearance ([2]; beagle dogs, single i.v. 1.4 mg/kg, 10-min slow bolus): 0.317 mL/min/kg; Vd ([2]; beagle dogs, single i.v. 1.4 mg/kg, 10-min slow bolus, read-out: V (volume of distribution)): 1.36 L/kg; half-life ([2]; beagle dogs, single i.v. 1.4 mg/kg, 10-min slow bolus, read-out: t1/2 (converted)): 53.1 h; half-life in clinical trials [3]: > 80 h; MEC [14]: ≤0.015 µg/mL; MEC [15]: ≤0.015 µg/mL; MEC [16]: ≤0.015 µg/mL
2 | CCCCCOc1ccc(-c2ccc(-c3ccc(C(=O)N[C@H]4C[C@@H](O)[C@@H](NCC[N+](C)(C)C)NC(=O)[C@@H]5[C@@H](O)[C@@H](C)CN5C(=O)[C@H]([C@@H](C)O)NC(=O)[C@H]([C@H](O)[C@@H](O)c5ccc(O)cc5)NC(=O)[C@@H]5C[C@@H](O)CN5C(=O)[C@H]([C@@H](C)O)NC4=O)cc3)cc2)cc1 [Compound 6] | statistically significant (P < 0.01) reductions in fungal burden at all doses | 0.03 | below 0.03 μg/ml | 0.03 | 0.03 | 0.25 | 0.5 | ≤ 0.015 | ≤ 0.015 | 0.25 | 0.25 | 0.03 | 0.03 | 0.5 | 1 | 0.03 | 0.03 | 0.03 | ≤0.015 | ≤0.015 | Vd ([2]; beagle, 1.4 mg/kg): 0.874 L/kg; half-life ([2]; beagle, 1.4 mg/kg): 27.6 h; MEC [14]: ≤0.015 µg/mL; MEC [15]: ≤0.015 µg/mL; MEC [16]: ≤0.015 µg/mL
